These results are taken from patent US7977387B2, “Aminobenzophenone compounds” (Leo Pharma A/S, priority 2003, dated 2011).

The test system of one experiment is IL-1β. The experiment in a line: Inhibition of IL-1β secretion in LPS stimulated peripheral blood mononuclear cells. The experiment is classed as cell-based. Particulars: PBMC; LPS stimulated human peripheral blood mononuclear cells, 18 hours, ELISA; read-out: The median inhibition concentration (IC50, nM) of IL-1β. On the procedure: (§1) To study the effect of compounds of the present invention in vitro, the inhibition of IL-1β and TNF-α secretion was determined using the following procedure:
(§2) Cytokine production was measured in the media from lipopolysaccharide (LPS) stimulated peripheral blood mononuclear cells. The mononuclear cells were isolated from human peripheral blood by Lymphoprep® (Nycomed, Norway) fractionation and suspended in RPMI 1640 (growth medium) with foetal calf serum (FCS, 2%), at a concentration of 5×10^5 cells/ml. The cells were incubated in 24-well tissue culture plates in 1 ml aliquots. Test compounds were dissolved in dimethylsulfoxide (DMSO, 10 mM) and were diluted with the medium. Compounds were added to the cells for 30 minutes, then LPS ([…] final concentration) was added. The plates were incubated for 18 hours, and the concentration of IL-β and TNF-α in the medium was determined by enzyme-linked immunosorbent assays. The median inhibitory concentrations (IC50) of the compounds were calculated.
(In general: In an ELISA, binding on a coated surface is turned into a signal by an enzyme label.)

For the next experiment, the system named is TNF-α. Briefly: Inhibition of TNF-α secretion in LPS stimulated peripheral blood mononuclear cells. The experiment is classed as cell-based. Particulars: PBMC; LPS stimulated human peripheral blood mononuclear cells, 18 hours, ELISA; read-out: The median inhibition concentration (IC50, nM) of TNF-α. On the procedure:
as §1, §2

Regarding `Cc1ccc(C(=O)NCC(=O)NCCC(N)=O)cc1C(=O)c1ccc(Nc2ccc(F)cc2F)cc1Cl` [Compound 168, N-[(2-Carbamoyl-ethylcarbamoyl)-methyl]-3-[2-chloro-4-(2,4-difluoro-phenylamino)-benzoyl]-4-methyl-benzamide], the IC50 in the experiment with IL-1β and in the experiment with TNF-α was 2.5 nM in each case.
Regarding `CCOC(=O)CNC(=O)c1ccc(C)c(C(=O)c2ccc(Nc3ccc(F)cc3F)cc2Cl)c1` [Compound 158, {3-[2-Chloro-4-(2,4-difluoro-phenylamino)-benzoyl]-4-methyl-benzoylamino}-acetic acid ethyl ester], the IC50 came to 0.6 nM in the experiment with IL-1β and 0.2 nM in the experiment with TNF-α.
On the same counts, the results for `Cc1ccc(NC(=O)CCO)cc1C(=O)c1ccc(Nc2ccc(F)cc2F)cc1Cl` [Compound 245, N-{3-[2-Chloro-4-(2,4-difluoro-phenylamino)-benzoyl]-4-methyl-phenyl}-3-hydroxy-propionamide] are 3.5 nM and 0.9 nM.
Consider `Cc1ccc(C(=O)NCCO)cc1C(=O)c1ccc(Nc2cccc(F)c2)cc1Cl` [Compound 193, 3-[2-Chloro-4-(3-fluoro-phenylamino)-benzoyl]-N-(2-hydroxy-ethyl)-4-methyl-benzamide], for which the IC50 in the experiment with IL-1β turned out to be 4 nM; with TNF-α, 2.5 nM.
In the same order, the values of `Cc1ccc(C(=O)NCCCCO)cc1C(=O)c1ccc(Nc2ccc(F)cc2F)cc1Cl` [Compound 159, 3-[2-Chloro-4-(2,4-difluoro-phenylamino)-benzoyl]-N-(4-hydroxy-butyl)-4-methyl-benzamide] are 7.9 nM and 1.3 nM.
On the same counts, the results for `Cc1ccc(C(=O)NCC(F)(F)C(F)(F)F)cc1C(=O)c1ccc(Nc2ccc(F)cc2F)cc1Cl` [Compound 154, 3-[2-Chloro-4-(2,4-difluoro-phenylamino)-benzoyl]-4-methyl-N-(2,2,3,3,3-pentafluoro-propyl)-benzamide] are 3.2 nM and 2.5 nM.
Consider `Cc1ccc(C(=O)NCCCO)cc1C(=O)c1ccc(Nc2ccccc2N)cc1Cl` [Compound 118, 3-[4-(2-Aminophenylamino)-2-chlorobenzoyl]-N-(3-hydroxypropyl)-4-methylbenzamide], for which the IC50 in the experiment on IL-1β was 2.2 nM; in the experiment on TNF-α, 2 nM.
In the same order, the values of `CC(=O)Nc1cccc(-c2ccc(C)c(C(=O)c3ccc(Nc4ccc(F)cc4F)cc3Cl)c2)c1` [Compound 285, N-{3′-[2-Chloro-4-(2,4-difluoro-phenylamino)-benzoyl]-4′-methyl-biphenyl-3-yl}-acetamide] are 1.4 nM and 0.6 nM.
With `COc1ccc(C(=O)NCC(O)CO)cc1C(=O)c1ccc(Nc2ccc(F)cc2F)cc1Cl` (stereo not shown) [Compound 143, 3-[2-Chloro-4-(2,4-difluoro-phenylamino)-benzoyl]-N-(2,3-dihydroxy-propyl)-4-methoxy-benzamide], the IC50 in the experiment on IL-1β is 2.5 nM; with TNF-α, 1.6 nM.
In the same order, the values of `CCOC(=O)CCNC(=O)Nc1ccc(C)c(C(=O)c2ccc(Nc3ccc(F)cc3F)cc2Cl)c1` [Compound 265, 3-(3-{3-[2-Chloro-4-(2,4-difluoro-phenylamino)-benzoyl]-4-methyl-phenyl}-ureido)-propionic acid ethyl ester] are 1 nM and 0.3 nM.
On the same counts, the results for `Cc1cc(F)ccc1Nc1ccc(C(=O)c2cc(C(=O)NCc3ccncc3)ccc2C)c(Cl)c1` [Compound 109] are 4 nM and 3.2 nM.
In the same order, the values of `Cc1ccc(-c2cccc(CO)c2)cc1C(=O)c1ccc(Nc2ccc(F)cc2F)cc1Cl` [Compound 282, [2-Chloro-4-(2,4-difluoro-phenylamino)-phenyl]-(3′-hydroxymethyl-4-methyl-biphenyl-3-yl)-methanone] are 5.6 nM and 0.6 nM.
Turning to `Cc1ccc(NC(=O)CC2NC(=O)NC2=O)cc1C(=O)c1ccc(Nc2ccc(F)cc2F)cc1Cl` (stereo not shown) [Compound 248, N-{3-[2-Chloro-4-(2,4-difluoro-phenylamino)-benzoyl]-4-methyl-phenyl}-2-(2,5-dioxo-imidazolidin-4-yl)-acetamide], the IC50 with IL-1β is 1 nM; in the experiment with TNF-α, 0.7 nM.
On the same counts, the results for `CCOC(=O)CNC(=O)c1ccc(OC)c(C(=O)c2ccc(Nc3c(F)cccc3F)cc2Cl)c1` [Compound 182] are 8.9 nM and 2.2 nM.
With `COc1ccc(C(=O)NCCO)cc1C(=O)c1ccc(Nc2ccc(F)cc2)cc1Cl` [Compound 194, 3-[2-Chloro-4-(4-fluoro-phenylamino)-benzoyl]-N-(2-hydroxy-ethyl)-4-methoxy-benzamide], the IC50 was 0.6 nM with IL-1β and 0.3 nM in the experiment with TNF-α.
In the same order, the values of `Cc1ccc(C(=O)N[C@H]2CC[C@H](O)CC2)cc1C(=O)c1ccc(Nc2ccc(Cl)cc2F)cc1Cl` [Compound 136, 3-[2-Chloro-4-(4-chloro-2-fluoro-phenylamino)-benzoyl]-N-trans-(4-hydroxy-cyclohexyl)-4-methyl-benzamide] are 4 nM and 2 nM.
In the same order, the values of `CCOC(=O)CNC(=O)CNC(=O)c1ccc(C)c(C(=O)c2ccc(Nc3ccc(F)cc3F)cc2Cl)c1` [Compound 169, (2-{3-[2-Chloro-4-(2,4-difluoro-phenylamino)-benzoyl]-4-methyl-benzoylamino}-acetylamino)-acetic acid ethyl ester] are 0.4 nM and 0.4 nM.
For the molecule `COCCOCC(=O)Nc1ccc(C)c(C(=O)c2ccc(Nc3ccc(F)cc3F)cc2Cl)c1` [Compound 243, N-{3-[2-Chloro-4-(2,4-difluoro-phenylamino)-benzoyl]-4-methyl-phenyl}-2-(2-methoxy-ethoxy)-acetamide], the IC50 is 2.8 nM with IL-1β and 1.3 nM in the experiment on TNF-α.
On the same counts, the results for `Cc1ccccc1C(=O)c1ccc(Nc2cccc(F)c2C)cc1Cl` [Ref. comp. f, 2-Chloro-4-(3-fluoro-2-methyl-phenylamino)-2′-methylbenzophenone, reference compound] are 13 nM and 4 nM.
On the same counts, the results for `CCNC(=O)Nc1ccc(C)c(C(=O)c2ccc(Nc3ccc(F)cc3F)cc2Cl)c1` [Compound 269, 1-{3-[2-Chloro-4-(2,4-difluoro-phenylamino)-benzoyl]-4-methyl-phenyl}-3-ethyl-urea] are 0.8 nM and 0.6 nM.
For `Cc1ccc(NC(=O)Nc2cccc(C(F)(F)F)c2)cc1C(=O)c1ccc(Nc2ccc(F)cc2F)cc1Cl` [Compound 263, 1-{3-[2-Chloro-4-(2,4-difluoro-phenylamino)-benzoyl]-4-methyl-phenyl}-3-(3-trifluoromethyl-phenyl)-urea], the IC50 in the experiment on TNF-α stood at 1.6 nM.
For `O=C(c1cc(OCCCO)ccc1F)c1ccc(Nc2ccc(F)cc2F)cc1Cl` [Compound 314, [2-Chloro-4-(2,4-difluoro-phenylamino)-phenyl]-[2-fluoro-5-(3-hydroxy-propoxy)-phenyl]-methanone], the IC50 with TNF-α worked out at 2.8 nM.
On the same count and under the same terms, with `Cc1ccc(NC(=O)CCc2ccco2)cc1C(=O)c1ccc(Nc2ccc(F)cc2F)cc1Cl` [Compound 246, N-{3-[2-Chloro-4-(2,4-difluoro-phenylamino)-benzoyl]-4-methyl-phenyl}-3-furan-2-yl-propionamide] the figure was 3.2 nM.
